Experiments:
[1] = test system: influenza virus A/Aichi/2/69 (H3N2); parameters: species or system mice; details: mouse, in vivo; for efficiency of treating influenza pneumonia in mice: po, 25 mg/kg/day
[2] = target: neuraminidase of influenza virus B/Pert/211/2001 (197D) (Influenza B virus, UniProt Q3S340); assay type: biochemical; details: read-out: IC50, nM (number of experiments)
[3] = target: neuraminidase of influenza virus B/Brisbane/60/2008 (Influenza B virus, UniProt C0LT34); assay type: biochemical; details: read-out: IC50, nM (number of experiments)
[4] = target: neuraminidase of influenza virus A/California/07/09 (H1N1) (Influenza A virus, UniProt C3W6G3); assay type: biochemical; details: read-out: IC50, nM (number of experiments)
[5] = target: neuraminidase of influenza virus A/California/04/09 (Influenza A virus, UniProt C3W5S3); assay type: biochemical; details: for IC50: read-out: neuraminidase activity IC50
[6] = test system: virus strain Ia/California/07/09 (H1N1); experiment: microbe, parasite or virus in culture; assay type: cell-based, influenza virus Ia/California/07/09 (H1N1) in MDCK cells; details: for IC50: Influenza A virus, H1N1, MDCK
[7] = target: neuraminidase of influenza virus A/Aichi/2/69 (H3N2) (Influenza A virus, UniProt Q75VQ4); assay type: biochemical; details: read-out: IC50, nM (number of experiments)
[8] = test system: highly pathogenic strain Ia/duck/MN/1525/81 (H5N1); experiment: microbe, parasite or virus in culture; assay type: cell-based, influenza virus Ia/duck/MN/1525/81 (H5N1) in MDCK cells; details: for IC50: Influenza A virus, H5N1, MDCK

CCOC(=O)C1=C[C@@H](OC(CC)CC)[C@H](NC(=O)CF)[C@@H](NC(=N)N)C1 [1.3, ethyl (3R,4R,5S)-5-guanidino-4-fluoroacetamido-3-(pentan-3-yloxy)cyclohex-1-enecarboxylate] was tested, and the “efficiency of treating influenza pneumonia in mice” value [1] was “high efficiency”.
In the case of CCOC(=O)C1=C[C@@H](OC(CC)CC)[C@H](NC(C)=O)[C@@H](N)C1 [Tamiflu, reference compound], the “death of treated animals by the time the last animal of virus control group died” value [1] is reported as “prevented completely” and the “weight loss of treated animals” value [1] is reported as “did not lose weight”.
With CCC(CC)O[C@@H]1C=C(C(=O)O)C[C@H](NC(=N)N)[C@H]1NC(=O)CF [1.1, (3R,4R,5S)-5-guanidino-4-fluoroacetamido-3-(pentan-3-yloxy)cyclohex-1-enecarboxylic acid] the IC50 [2] was 2.08 nM, the IC50 [3] was 1.27 nM and the IC50 [4] was 0.18 nM. The “times more active than A2” value [5] was 4, the “times more active than A4” value [5] was 400 and the “more active than Oseltamivir carboxylate (A2) by factor” value [6] was 13. For the same compound, the “more active than Zanamivir (Zan) by factor” value [6] was 20, the IC50 [6] was 780 nM and the IC50 [7] was 0.69 nM. The “activity higher than that of Oseltamivir carboxylate, times” value [8] was 24, the “activity higher than that of Zanamivir (Zan), times” value [8] was 16 and the IC50 [8] was 3200 nM.
In the case of CCC(CC)O[C@@H]1C=C(C(=O)O)C[C@H](N)[C@H]1NC(C)=O [A2, (3R,4R,5S)-5-amino-4-acetamido-3-(pentan-3-yloxy)cyclohex-1-enecarboxylic acid, reference compound], the IC50 [6] is reported as 9900 nM and the IC50 [8] is reported as 77500 nM.
In the case of CCC(CC)O[C@@H]1C=C(C(=O)O)C[C@H](NC(=N)N)[C@H]1NC(=O)C(F)F [1.4, (3R,4R,5S)-5-guanidino-4-difluoroacetamido-3-(pentan-3-yloxy)cyclohex-1-enecarboxylic acid], the “times more active than A2” value [5] is reported as 2.7 and the “times more active than A4” value [5] is reported as 267.
Compound CCC(CC)O[C@@H]1C=C(C(=O)OCCc2cccnc2)C[C@H](NC(=N)N)[C@H]1NC(=O)C(F)F [1.11, 2-pyridin-3-ylethyl (3R,4R,5S)-5-guanidino-4-(2,2-difluoroacetamido)-3-(pentan-3-yloxy)cyclohex-1-enecarboxylate] has an IC50 [5] of less than 1 nM.
In the case of CCC(CC)O[C@@H]1C=C(C(=O)OC2CCCCC2)C[C@H](NC(=N)N)[C@H]1NC(=O)C(F)F [1.9, 2-cyclohexyl (3R,4R,5S)-5-guanidino-4-(2,2-difluoroacetamido)-3-(pentan-3-yloxy)cyclohex-1-enecarboxylate], the IC50 [5] is reported as less than 1 nM.
CCC(CC)O[C@@H]1C=C(C(=O)OCCc2ccccc2)C[C@H](NC(=N)N)[C@H]1NC(=O)C(F)F [1.10, 2-phenylethyl (3R,4R,5S)-5-guanidino-4-(2,2-difluoroacetamido)-3-(pentan-3-yloxy)cyclohex-1-enecarboxylate] was tested, and the IC50 [5] was less than 1 nM.
CC(=O)NC1C(NC(=N)N)C=C(C(=O)O)OC1C(O)C(O)CO [Zan, 5-Acetamido-2,3-didehydro-3,4,5-trideoxy-4-guanidino-alpha-D-glycero-D-galacto-2-nonulopyranosonic acid, reference compound] showed an IC50 [6] of 16000 nM and an IC50 [8] of 51200 nM.
CCOC(=O)C1=C[C@@H](OC(CC)CC)[C@H](NC(=O)C(F)F)[C@@H](NC(=N)N)C1 [1.6, ethyl (3R,4R,5S)-5-guanidino-4-difluoroacetamido-3-(pentan-3-yloxy)cyclohex-1-enecarboxylate] was tested, and the “efficiency of treating influenza pneumonia in mice” value [1] was “high efficiency”.
For CCC(CC)O[C@@H]1C=C(C(=O)OCCOC)C[C@H](NC(=N)N)[C@H]1NC(=O)C(F)F [1.12, 2-methoxyethyl (3R,4R,5S)-5-guanidino-4-(2,2-difluoroacetamido)-3-(pentan-3-yloxy)cyclohex-1-enecarboxylate], the IC50 [5] was less than 1 nM.
